Tests used:
[1] = system: C57BL/6 mice given 3% DSS (acute colitis); assay: DSS-induced acute colitis model; format: in vivo; settings: 3% DSS for 6 days, oral gavage
Source text: We examined whether oral administration of inulin gel loaded with an immune tolerizing drug can exert therapeutic efficacy against colitis. Mice were given 3% DSS in drinking water for 6 days to induce acute colitis. Starting day 0, mice were also orally gavaged with either PBS, an Ahr ligand, indole-3-aldehyde (IALD), or inulin gel formulated with IALD (inulin gel + IALD) (FIG. 5A).
Method: Six-week-old female C57BL/6 mice were acclimatized for 2 weeks before the start of the study. To induce colitis, mice were given 3% DSS (40 kDa; Alfa Aesar) supplemented in the drinking water for 6 days, followed by giving normal water. Inulin gel + IALD, IALD or PBS was orally gavaged into mice on predetermined days. The inulin gel + IALD was prepared by dissolving 300 mg of inulin from chicory (Sigma-Aldrich) in 0.9 ml deionized water and 0.1 ml IALD solution (50 mg/mL, DMSO). The inulin solution was thoroughly mixed with IALD solution by vortex and was heated to 70° C. for 5 min. The formulation was kept at room temperature for 12 h for gelation. The IALD was prepared similarly without adding the inulin. Bodyweight were measured daily over the experimental period. On day 9, mice were sacrificed, and the entire colon was excised. Colon length and the cecum weight was measured.

[2] = system: BABL/c mice sensitized with OVA/Alum (OVA allergy); format: in vivo; settings: after the 3rd OVA challenge; escalated dose OIT
Protocol: To simulate the widely used therapeutic plan in clinic, we next provided the escalated dose of OVA in OIT treatment (FIG. 2a).
Preparation and characterization of inulin gel, PE or OVA loaded inulin gel. For OVA-related study, 495 mg of inulin from chicory (Sigma-Aldrich) was dissolved in 1.35 mL PBS and heated for 5 min. OVA (Sigma-Aldrich) was added right after cool-down of inulin. For PE-related study, 300 mg of inulin from chicory (Sigma-Aldrich) was dissolved in 0.9 mL deionized water, after heating for 5 min, 8 mg of PE was added right after cool-down. Samples were kept at 4° C. for 24 h. […] The content of protein in peanut extraction (around 20%) was determined by BCA assay.
In vivo oral sensitization, immunotherapy, and challenge. […] Body weight before all times of i.g. challenge were recorded, while the body temperature in the last time of i.g. challenge was measured. […] On day 73, mice were i.p. injected with 125 µg PE and the body temperature was recorded at preset times via rectal temperature probe.
Assessment of hypersensitivity reactions and diarrhea. Anaphylactic symptoms were evaluated between 30 to 50 minutes after i.p. challenge of PE (125 µg/dose) or i.g. challenge of OVA (50 mg/dose). […] For OVA study, mice with profuse liquid stool up to 1 h after i.g. challenge were recorded as diarrhea-positive animals. […]
Intestinal mast cell quantification. […]

| Molecule | bodyweight loss ([1]; daily bodyweight for 9 d) | shortening of the colon length ([1]; day 9) | death after OVA challenge [2] |
| --- | --- | --- | --- |
| O=Cc1c[nH]c2ccccc12 [IALD, indole-3-aldehyde] | significant bodyweight loss | shortening of the colon length | – |
| OVA: albumin (OVA) protein, unformulated allergen given orally as OIT comparator (protein, UniProt P01012 2-386, looked up) Ovalbumin: GSIGAASMEFCFDVFKELKVHHANENIFYCPIAIMSALAMVYLGAKDSTRTQINKVVRFDKLPGFGDSIEAQCGTSVNVHSSLRDILNQITKPNDVYSFSLASRLYAEERYPILPEYLQCVKELYRGGLEPINFQTAADQARELINSWVESQTNGIIRNVLQPSSVDSQTAMVLVNAIVFKGLWEKAFKDEDTQAMPFRVTEQESKPVQMMYQIGLFRVASMASEKMKILELPFASGTMSMLVLLPDEVSGLEQLESIINFEKLTEWTSSNVMEERKIKVYLPRMKMEEKYNLTSVLMAMGITDVFSSSANLSGISSAESLKISQAVHAAHAEINEAGREVVGSAEAGVDAASVSEEFRADHPFLFCIKHIATNAVLFFGRCVSP | – | – | Some mice in the OVA group died |

Source: patent US20230346826A1, “COMPOSITIONS AND METHODS FOR TREATING AND/OR PREVENTING AUTOIMMUNE DISORDERS” (The Regents of the University of Michigan, priority 2020, published 2023)
